# How the values were obtained:
# [1] = format: in vivo; conditions: piglets, oral PM 100 mg/kg
# Procedure: Neonatal pigs spontaneously delivered from sows were confirmed to be negative for TGEV by RT-qPCR and enzyme-linked immunosorbent assay. For the cytotoxicity and pharmacokinetic parameters of the PM, three piglets were orally administered PM (100 mg/kg), and the serum was collected by venipuncture at 0, 1, 2, 4, 6, 8, 10, 12, 16, and 24 h after oral administration of PM for cytotoxicity assays and pharmacokinetic parameter determination. For antiviral animal experiments, piglets were randomly separated into four groups: the mock group ([3]), TGEV group ([3]), TGEV-PM-therapy group ([3]), and TGEV-PM-prevention group ([3]). For the TGEV group, neonatal pigs were orally administered 1.245 × 10^8 PFU TGEV Miller for 24 h. In addition, piglets in the TGEV-PM therapy group were orally infected with 1.245 × 10^8 PFU TGEV Miller and then treated with PM (100 mg/kg). […] The body weights of all piglets were recorded, and anal swabs were collected every 12 h. […]
# Fig. S9. […] (A) The serum of piglets orally administered PM were collected at 1, 2, 4, 6, 8, 10, 12, 16 and 24 hours respectively and AST, CK and CREA level in those sera were measured by biochemical parameters. (B) PM concentrations at indicated times in piglets were determined by ICP-MS. […]
# PRCV = PRCV infection of ST cells (RT-qPCR, TCID50, western blot, IFA); format: cell-based, porcine respiratory coronavirus; conditions: PRCV 0.1 MOI; for PRCV N level, western blot, relative to WT without PM (=1): PM 10 mM, 16 h
# Procedure: Fig 1 PM inhibits TGEV and PRCV infection in ST cells. (A) A cytotoxicity assay of PM in ST cells. ST cells cultured in a 96-well plate were incubated with different concentrations of PM for 24 h, which was tested by Cell Counting Kit 8. (B) Time course for PM inhibiting TGEV or PRCV or PEDV infection assay. (C–F) The ST cells, pretreated with PM at the indicated concentrations for 1 h were infected with TGEV Miller (0.1 MOI) or PRCV (0.1 MOI) for 1 h and were again treated with PM at 37°C for 17 h. The cell samples were collected and examined by real-time quantitative PCR (RT-qPCR), TCID50, western blot (C and D), and immunofluorescence assay (IFA) (E and F), scale bar: 50 µm. (G) Vero-E6 cells were treated with indicated PM and infected with PEDV LJX 01/2014 according to the time course of Fig. 1B, which was detected by TCID50 and western blot. Results are presented as mean ± SD of data from three independent experiments. ns, no significant; **, P ≤ 0.01; ***, P ≤ 0.001.
# Fig 3 PM inhibits TGEV and PRCV infection by potassium ion and molybdate synergy. (A and B) The ST cells, pretreated with potassium chloride (KCl) or sodium molybdate (Na2MoO4) at the indicated concentrations for 1 h were infected with TGEV Miller (0.1 MOI) for 1 h and were again treated with KCl or Na2MoO4 at 37°C for 17 h. The cell samples were measured by RT-qPCR. (C and D) ST cells were treated with PM (K2MoO4, 10 mM), KCl (20 mM), Na2MoO4 (10 mM), sodium chloride (NaCl, 10 mM), K2MoO4 (10 mM), and NaCl (20 mM) as well as Na2MoO4 (10 mM) and KCl (20 mM) for 1 h and then infected with TGEV Miller (0.1 MOI) or PRCV (0.1 MOI) for 17 h, which was determined by RT-qPCR and TCID50. Results are presented as mean ± SD of data from three independent experiments. ***, P ≤ 0.001; ns, no significance.
# Total RNA was extracted using RNAiso reagent (TaKaRa, Japan, 9109) and reverse transcribed into cDNA using HiScript Q RT SuperMix for qPCR (Vazyme, China, R223-01), both of which followed the manufacturer’s recommendations. The TGEV and PRCV virus copy numbers were detected by the TaqMan probe-based RT-qPCR method developed previously in our laboratory ([59]). Relative qPCR was also performed using ChamQ SYBR qPCR master mix (Vazyme, China, Q311-02), and the results were calculated via the 2^-ΔΔCT method.
# Fig. S8. PM inhibits PRCV infection by degrading APN via PIK3C3-mediated autophagy. (A-C) WT ST cells and PIK3C3 KO ST cells were treated with PM (10 mM) and infected with PRCV (0.1 MOI) for 16 h. Then the APN, PIK3C3, ATG14, BECN1, P62, PRCV N and LC3 were detected by western blot (A), and viral titers and PRCV N mRNA level were determined by TCID50 (B) and RT-qPCR (C) . (D-F) WT ST cells and PIK3C3 KO ST cells transfected with pCMV-Myc and pCMV-Myc-PIK3C3 respectively for 24 h were treated with PM (10 mM) and infected with PRCV (0.1 MOI) for 16 h. The APN, PIK3C3, P62, PRCV N and LC3 were determined by western blot (D). TCID50 (E) and RT-qPCR (F) were performed to detect viral titers and PRCV N m RNA level. All western blot results were calculated by Image J. Results are presented as mean ± SD of data from three independent experiments (also on this page, place not known: 6 8 10 12 Viral load(log copies/ul) *** 2 4 6 8 log10 TCID50/ml *** 6 8 10 12 + Viral load(log copies/ul) PIK3C3-Myc + - + + + *** *** 2 4 6 8 log10 TCID50/ml *** + + + + PIK3C3-Myc - - - + - + + + *** WT KO PM (C). WT KO PM PRCV PM - + + PRCV + + + WT PIK3C3 KO PIK3C3 PRCV PIK3C3-Myc - - - + PM - + + + PRCV + + + + WT PIK3C3 KO 0 0) […]
structure (smiles),measurement,setting,value
"[K+].[K+].[O]=[Mo](=[O])([O-])[O-] [PM, potassium molybdate]",safety of the dose,[1],safe concentration
same,"aminotransferase (AST), creatine kinase (CK) and creatinine (CERA) levels",[1]; serum at 0-24 h,did not affect
same,"PRCV N level, western blot, relative to WT without PM (=1)","PRCV; Fig. S8A, PIK3C3 KO ST cells",0.81
same,"PRCV N level, western blot, relative to WT without PM (=1)","PRCV; Fig. S8A, WT ST cells",0
same,"PRCV N level, western blot, relative to WT without PM (=1)","PRCV; Fig. S8D, PIK3C3 KO ST cells with PIK3C3-Myc",0
same,"PRCV N level, western blot, relative to WT without PM (=1)","PRCV; Fig. S8D, PIK3C3 KO ST cells without PIK3C3-Myc",0.78
same,"PRCV N level, western blot, relative to WT without PM (=1)","PRCV; Fig. S8D, WT ST cells with pCMV-Myc",0
same,PRCV infection,"PRCV; ST cells, PM 1 h pretreatment and 17 h after infection, RT-qPCR, TCID50, western blot, IFA",effectively restricted

# Reference: article PMC11784013, “Potassium molybdate blocks APN-dependent coronavirus entry by degrading receptor via PIK3C3-mediated autophagy” (Journal of Virology, 2024)
